Experimental data reported in the METLIN SMRT retention time set (Domingo-Almenara et al. 2019).

Test: gradient 5% acetonitrile 3 min, to 50% in 2 min, to 85% in 15 min, held 3 min, 100 µL/min
Conditions: column: Zorbax Extend-C18 2.1 x 50 mm; eluents: water / acetonitrile, 0.1% formic acid
Method in brief: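 The mobile phases were water and acetonitrile, each with 0.1% formic acid, pumped at 100 μL/min through a Zorbax Extend-C18 column (2.1 × 50 mm, 1.8 μm). Pure standards were injected as mixtures of ~100 molecules and detected by a quadrupole time-of-flight mass spectrometer in positive and negative ionization mode. Retention time came from computationally picked adduct peaks, each inspected by hand.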

Structure (SMILES) | RP-LC retention time
Cc1ccc(CNC(=O)c2ncn3c2C(=O)N(C2CC2)C(C)(C(=O)NCc2ccc(C)cc2)C3)cc1 (stereo not given) | 832 s
CC1CCC(NC(=O)c2sc3ncccc3c2-n2cccc2)CC1 (stereo not given) | 1200 s
CC(C)N1CCn2c(nc3cc(C(=O)NCc4ccccc4C(F)(F)F)ccc32)C1=O | 768 s
CSc1cccc(NC(=O)Cn2c(=O)cc(-c3nc(C(C)C)no3)c3ccccc32)c1 | 928 s
CN(CC1CCOC1)C(=O)c1ccc(F)c(Cl)c1 (stereo not given) | 724 s
O=C(CSc1nc(-c2ccccc2)ns1)Nc1nc2ccccc2s1 | 1000 s
Cc1nc(-c2cn(C(C)C)c3ncccc23)sc1C(=O)NCCC(C)C | 1070 s
O=C(CCCSc1ccc(F)cc1)Nc1nnc(Cc2ccc3c(c2)OCO3)o1 | 807 s
Cc1cc2[nH]c(C(=O)Nc3ccc(F)cc3Br)c(CN(C)C)c2s1 | 678 s
O=C(Cn1cccc1-c1nc(-c2ccccc2)cs1)N1CCOCC1 | 934 s
Cn1nc(N2CCC(NC(=O)CCn3cnnn3)CC2)ccc1=O | 566 s
O=C(O)c1ccc(N2CCN(c3ccccn3)CC2)c(NS(=O)(=O)c2ccc(F)c(F)c2)c1 | 649 s
COc1cc(CCC(=O)N2CCNc3ccccc3C2)cc(OC)c1OC | 710 s
COc1cc(Cl)c(C)cc1Nc1c(C(=O)N2CCC(C)CC2)cnc2nc(C)ccc12 | 706 s
Cc1cc(C)n(-c2ccnc(N3CCC(C(=O)NC(C)c4ccc(F)cc4)CC3)n2)n1 (stereo not given) | 872 s
O=C(CCC1NC(=O)c2ccccc2NC1=O)NCc1nc(-c2ccccc2)no1 (stereo not given) | 624 s
COCCc1nncn1C1CCN(S(=O)(=O)c2ccc(Cl)c(C)c2)CC1 | 769 s
COc1ccc(-c2nnc(-c3ccc(C)c(S(=O)(=O)N4CCSCC4)c3)o2)cc1OC | 970 s
CCN(C(=O)c1ccco1)c1nc(-c2ccccc2)cs1 | 1180 s
O=C(Nc1ccc(F)cc1F)c1ccc(N2C(=O)CCC2=O)cc1 | 671 s

Structure (SMILES) | RP-LC retention time
CCn1cc(S(=O)(=O)NCc2cc(F)cc(F)c2)c2cccnc21 | 828 s
CC(C)NC(=O)c1cc(C2CC2)[nH]n1 | 644 s
CN(CC(=O)NC1CCCC1)S(=O)(=O)c1c[nH]c(C(=O)N2CCCC2)c1 | 686 s
Cc1nc(-c2csc(S(=O)(=O)N3CCCC(C(=O)NCc4ccc5c(c4)OCO5)C3)c2)no1 (stereo not given) | 880 s
Cc1cc(=O)oc2c(C)c(OCC(O)CN3CCN(c4ccccn4)CC3)ccc12 (stereo not given) | 572 s
Cc1ccc2[nH]cc(CCNC(=O)c3cc(-c4ccccn4)nc4ccccc34)c2c1 | 902 s
COCCc1noc(C2CN(C(=O)Cn3ccnc3)C2)n1 | 580 s
CC(C)CNc1nc2ccncc2n(Cc2ccccc2)c1=O | 672 s
NC(=O)C1CCN(C(=O)Cc2cc(-c3ccco3)on2)CC1 | 580 s
Cn1c(=O)n(Cc2cccc(Cl)c2)c(=O)c2cnc(-c3ccncc3)nc21 | 922 s
CCS(=O)(=O)c1nc2ccc(NS(=O)(=O)c3c(C)cc(C)cc3C)cc2s1 | 958 s
Cc1nccn1C1CN(S(=O)(=O)c2cccc3cccnc23)C1 | 571 s
CCC(C)NC(=O)Cn1cnc2nc(N3CCC(C(=O)NC4CC4)CC3)sc2c1=O (stereo not given) | 1140 s
CN(CCc1noc(-c2ccc(Cl)cc2)n1)C(=O)Nc1ccccc1F | 952 s
CCc1nc(-c2cc(S(=O)(=O)NCC(=O)NC3CCCCC3)c(C)s2)no1 | 906 s
CCCN(CCC)[C@@H]1CCc2ccc(O)cc2C1 | 671 s
O=C(CNC(=O)c1ccc(F)c(Cl)c1)Nc1nc2ccccc2[nH]1 | 660 s
COCCn1cc(CCNC(=O)c2cc(F)cc(F)c2)c2cccnc21 | 737 s
Cc1cc(N2CCCCC2C)n2nc(-c3ccccc3C)nc2n1 (stereo not given) | 991 s
Cc1nn(-c2ccccc2)c(C)c1S(=O)(=O)N1CCC(C(=O)NCCN2CCCCCC2)CC1 | 672 s

Structure (SMILES) | RP-LC retention time
COC(=O)COc1cc(O)c2c(=O)cc(-c3ccccc3)oc2c1 | 990 s
CCc1nc2ccc(-c3noc(-c4ccsc4)n3)cc2n1CC | 698 s
CC(=O)Nc1nc(C)c(-c2ccc(Cl)c(S(=O)(=O)NCCO)c2)s1 | 685 s
O=C(CCc1c(-c2ccc(Br)cc2)nc2ccccn12)NCCc1ccco1 | 678 s
Cc1ccccc1-c1csc2c(=O)n(CC(=O)OC(C)(C)C)cnc12 | 1060 s
Cc1ccc(-c2csc(NC(=O)c3ccccc3Br)n2)c(C)c1 | 1150 s
O=C(c1cncc(Br)c1)N1CCCC(c2nnc(-c3ccccc3)o2)C1 (stereo not given) | 777 s
COc1cc2c(cc1OC)C1C(C(=O)N3CCN(c4ccccn4)CC3)c3ccccc3C(=O)N1CC2 (stereo not given) | 606 s
Cn1c(C(=O)N2CCN(c3ccccn3)CC2)cc2c(=O)n(C)c3ccccc3c21 | 562 s
COCc1cc(=O)n(CC(=O)Nc2cc(OC)c(OC)c(OC)c2)c(N2CCOCC2)n1 | 734 s
Cn1cnc(S(=O)(=O)N2CCC(C(=O)NCc3ccccc3Cl)CC2)c1 | 695 s
CCC(C)NC(=O)CSc1nccc(N2CCN(c3cc(C)ccc3C)CC2)n1 (stereo not given) | 873 s
Cc1ccc(-c2noc(Cn3ncn4nc(-c5cc(C)ccc5C)cc4c3=O)n2)cc1 | 878 s
Cc1ncsc1CN1CCCC(c2nc(C(C)C)no2)CCNC(=O)CC1 (stereo not given) | 598 s
O=C(c1ccccc1)c1ccccc1C(=O)c1ccccc1 | 1090 s
O=C(Cc1cn2cc(F)ccc2n1)Nc1ccc(Cl)cc1Cl | 666 s
COC(=O)C1=C(C(=O)OC)SC2(S1)C(C(=O)OC)=C(C(=O)OC)Sc1c2ssc1=O | 977 s
COc1cccc(N2CCN(S(=O)(=O)c3cccc(-c4nc(-c5ccccc5)no4)c3)CC2)c1 | 1290 s
CCn1c(N2CCC(C(=O)NC3CCCCCC3)CC2)cc(=O)n(C)c1=O | 855 s

More lines, now with the values ahead:

RP-LC retention time | Structure (SMILES)
863 s | Cc1ccccc1-c1nc(C)c(C(=O)NC2CC2)s1
998 s | CCc1nc2ccccc2c(=O)n1Cc1noc(-c2cccc(OC)c2)n1
612 s | CCn1c(CNC(=O)C2CCC2)nc2c1CN(C(=O)c1ccc(OC)cc1)CC2
789 s | CCC(=O)N1CCc2cc(N3CC(C(=O)Nc4ccc(C)cc4Cl)CC3=O)ccc21 (stereo not given)
666 s | CCC1(C(=O)Nc2ccc(OC)cc2)CCCCC(=O)N1 (stereo not given)
602 s | O=C(CCc1c(-c2ccc(Cl)cc2)nc2ccccn12)NCC1CCCO1 (stereo not given)
901 s | CCc1ccc(C2=C(C)C(N3CCCN(C(=O)C(C)(C)C)CC3)=NS2(=O)=O)cc1
955 s | Cc1cc(-c2nnc(NC(=O)C(C)(C)Oc3ccc(Cl)cc3)o2)c(C)o1
594 s | Cc1ccc2[nH]c(=O)c(CCC(=O)NCCCN3CCCC(C)C3)cc2c1 (stereo not given)
777 s | Cc1ccccc1CNC(=O)C1CCN(S(=O)(=O)c2ccc3c(c2)NC(=O)CO3)CC1
1080 s | COc1ccc(-c2cc3n(n2)CCCN(S(=O)(=O)c2ccc4c(c2)CCC4)C3)cc1
793 s | Cc1nn(-c2nc(-c3ccc(Cl)cc3)cs2)c(C)c1CC(=O)N1CCCCCC1
631 s | O=C(NCc1ccc(F)cc1)c1cn2c(n1)COCC2
565 s | COC(=O)CC(=O)Nc1cc2c(cc1N1CCCC1)n(C)c(=O)n2C
1180 s | CCOc1nc2ccccc2nc1N1CCCC(C(=O)Nc2ccccc2)C1 (stereo not given)
574 s | CCN1CCN(CCNC(=O)c2ccc3c(c2)NC(=O)C2CCCCN32)CC1 (stereo not given)

RP-LC retention time | Structure (SMILES)
613 s | COc1ccc(C2(C(=O)N3CC(N(Cc4ccncc4)S(C)(=O)=O)C3)CC2)cc1
927 s | COC[C@@H]1OCCN(S(=O)(=O)c2cccc(OC)c2)[C@H]1c1ccccc1
796 s | CCOC(=O)c1oc2ccccc2c1NC(=O)C1CCCN1S(C)(=O)=O (stereo not given)
853 s | Cc1ccc(NC(=O)NC2CCN(c3ccc(C)cc3)C2=O)cc1 (stereo not given)
867 s | CCOC(=O)c1[nH]c(C)c(CCC(=O)N2CCC(C(=O)NCc3ccc(CC)cc3)CC2)c1C
654 s | CC(=O)c1cccc(NC(=O)Nc2cccc(-c3ccc(N4CCCC4)nn3)c2)c1
759 s | CCCC(=O)N1CCc2c(c(C(=O)N3CCCC(C(=O)Nc4ccccc4C)C3)nn2C)C1 (stereo not given)
807 s | CCc1noc(NC(C)=O)c1-c1ccc(C)c(S(=O)(=O)NCc2ccc(OC)cc2)c1
656 s | Cc1cccc2nnc(N3CCC(C(=O)Nc4ccc(Cl)cc4)CC3)n12
1140 s | COc1ccc2c(c1)-c1nc(NC(=O)c3ccc(F)cc3)sc1CC2
881 s | CCSc1nnc(NC(=O)c2nn(-c3ccc(F)cc3)cc2OC)s1
866 s | CC(=O)Cc1nsc(NC(=O)c2ccc(-c3cccc(Cl)c3)o2)n1
859 s | COc1ccc2[nH]cc(CCNC(=O)CN3C(=O)CSc4cccn4-c4ccccc43)c2c1
1130 s | COC(=O)C1(C)CCCC2(C)c3cc(OC)ccc3C(=O)C(Br)C12 (stereo not given)
805 s | CCCNC(=O)CCc1nc2ccccc2n(CC(=O)Nc2ccc(OC)c(Cl)c2)c1=O
